From US20070037833A1, “Compositions and methods for inhibiting neurodegeneration” (priority 2005, published 2007)

How the values were obtained:
[1] = tested on: motor neurons; test: Cholesterol content of pure motor neuron cultures (Amplex Red Cholesterol Assay); format: cell-based, rat; conditions: after 30 minutes of treatment
Protocol: Two hundred thousand motor neurons were plated in wells of a 96 well dish and after 24 hrs. treated with βMCD or vehicle. Thirty minutes later cholesterol content was determined using the Amplex® Red Cholesterol Assay kit (Molecular Probes) according to the manufacturers instructions. All determinations were made in quintuplicate and normalized to protein content (determined using Protein Assay kit (Bio-Rad)).
Finally to begin to determine the biological relevance of the lipid raft signaling complex, we asked if their disruption with cholesterol depleting agents would affect the capacity of BDNF to confer excitotoxic sensitivity upon motor neurons. Pure motor neurons were grown in the presence of CT-1 but in the absence of BDNF for 24 hours at which point the cholesterol depleting agent, β-methylcyclodextin (βMCD) or vehicle was added to the cultures. Thirty minutes later, BDNF or vehicle was added to the culture and 3 hours later the excitoticity assay was performed (FIG. 6b). We determined the amount of cholesterol in our pure motor neuron cultures after 30 minutes of βMCD treatment and found an ˜25% reduction in comparison with vehicle treatment (βMCD v. vehicle; 404±31 μg/μg protein versus 550±16 μg/μg protein, n=5 samples, t-test, p<0.001). […]

[2] = tested on: pure motor neurons grown in CT-1; test: BDNF-conferred excitotoxic sensitivity of pure motor neurons after cholesterol depletion; format: cell-based; conditions: for excitotoxic cell death: acute BMCD or vehicle followed by BDNF or vehicle, then kainate
Protocol: Finally to begin to determine the biological relevance of the lipid raft signaling complex, we asked if their disruption with cholesterol depleting agents would affect the capacity of BDNF to confer excitotoxic sensitivity upon motor neurons. Pure motor neurons were grown in the presence of CT-1 but in the absence of BDNF for 24 hours at which point the cholesterol depleting agent, β-methylcyclodextin (βMCD) or vehicle was added to the cultures. Thirty minutes later, BDNF or vehicle was added to the culture and 3 hours later the excitoticity assay was performed (FIG. 6b). We determined the amount of cholesterol in our pure motor neuron cultures after 30 minutes of βMCD treatment and found an ˜25% reduction in comparison with vehicle treatment (βMCD v. vehicle; 404±31 μg/μg protein versus 550±16 μg/μg protein, n=5 samples, t-test, p<0.001). In terms of cell death, a statistically significant difference between experimental groups was identified by ANOVA (F(5,42)=32.797; P<0.001) and a post hoc analysis (Scheffé with level of significance set at P<0.05) indicated excitotoxic death only occurred in the (+)BDNF/(−)βMCD treatment group (# of motor neurons exposed to vehicle or kainate; 57±7 versus 40±4).

[3] = tested on: ALS patients; conditions: intrathecal 25 μg/day or 150 μg/day versus vehicle, 18 months; cited from earlier work

Molecule	reduction of cholesterol in comparison with vehicle [1]	# of motor neurons ([2]; (+)BDNF/(+)βMCD group, exposed to kainate)	# of motor neurons ([2]; (+)BDNF/(+)βMCD group, exposed to vehicle)	# of motor neurons ([2]; (−)BDNF/(+)βMCD group, exposed to kainate)	# of motor neurons ([2]; (−)BDNF/(+)βMCD group, exposed to vehicle)	toxicity to motor neurons ([2]; BMCD alone)	excitotoxic cell death [2]	# of motor neurons ([2]; (+)BDNF/(−)βMCD group, exposed to kainate)	# of motor neurons ([2]; (+)BDNF/(−)βMCD group, exposed to vehicle)	survival rate (survival free of ventilatory support) [3]
β-methylcyclodextin [βMCD]	~25%	51±5	58±4	60±5	60±3	non-toxic	did not occur	–	–	–
BDNF: brain-derived neurotrophic factor, activates the receptor tyrosine kinase TrkB (protein, UniProt P23560 19-247, looked up) Neurotrophic factor BDNF …: APMKEANIRGQGGLAYPGVRTHGTLESVNGPKAGSRGLTSLADTFEHVIEELLDEDQKVRPNEENNKDADLYTSRVMLSSQVPLEPPLLFLLEEYKNYLDAANMSMRVRRHSDPARRGELSVCDSISEWVTAADKKTAVDMSGGTVTVLEKVPVSKGQLKQYFYETKCNPMGYTKEGCRGIDKRHWNSQCRTTQSYVRALTMDSKKRIGWRFIRIDTSCVCTLTIKRGR	–	–	–	–	–	–	Excitotoxic cell death occurred	40±4	57±7	lower than in the placebo group
